Measured values reported in patent US11827628B2, “Compositions and methods for inhibition of the JAK pathway” (Rigel Pharmaceuticals, Inc., priority 2005, dated 2023).
Counter-ions that a name gives are not always drawn.

What follows are molecules tested on up-regulation of ICAM-1 (CD54) by IFNγ in U937 human monocytic cells (assay: U937 IFNγ ICAM1 FACS Assay). Details: Homo sapiens, U-937, U937 cells stimulated with IFNγ, ICAM-1 expression by FACS; read-out: IC50, Example 44.
Type: cell-based
Summary of the method: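 Readout was the geometric-mean APC anti-ICAM-1 signal by FACS on live U937 monocytic cells, with % live cells also recorded. Cells were exposed to compounds (8 points, 3-fold dilutions, duplicates) for 30 min at 37 °C before 18–24 h of IFNγ stimulation. EC50 values were computed from the dose curve.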

| SMILES | IC50 [nM] |
| --- | --- |
| Cc1ccc(Nc2ncc(F)c(Nc3ccc(OCC(N)=O)c(F)c3)n2)cc1S(N)(=O)=O [Compound I-102, N4-(4-Aminocarbonylmethoxy-3-fluorophenyl)-N2-(3-aminosulfonyl-4-methylphenyl)-5-fluoro-2,4-pyrimidinediamine] | 15600 |
| COc1cc(Nc2nc(Nc3ccc(S(N)(=O)=O)cc3)ncc2F)cc(OCC#N)c1OC [Compound I-1, N2-(4-Aminosulphonylphenyl)-N4-(3-cyanomethoxy-4,5-dimethoxyphenyl)-5-fluoro-2,4-pyrimidinediamine] | 35300 |
| Cc1ccc(Nc2ncc(C)c(Nc3ccc(OCC#N)cc3)n2)cc1S(N)(=O)=O [Compound I-59, N2-(3-Aminosulfonyl-4-methylphenyl)-N4-(4-cyanomethoxyphenyl)-5-methyl-2,4-pyrimidinediamine] | 57.7 |
| Cc1cnc(Nc2cccc(S(N)(=O)=O)c2)nc1Nc1ccc(OCC(=O)N(C)C)c(F)c1 [Compound I-138, N2-(3-Aminosulfonylphenyl)-N4-(4-dimethylaminocarbonylmethoxy-3-fluorophenyl)-5-methyl-2,4-pyrimidinediamine] | 9470 |
| Cc1ccc(Nc2ncc(F)c(Nc3ccc(Oc4cccnc4)cc3)n2)cc1S(N)(=O)=O [II-12, N2-(3-Aminosulfonyl-4-methylphenyl)-5-fluoro-N4-[4-(3-pyridyloxy)phenyl]-2,4-pyrimidinediamine] | 1190 |
| NS(=O)(=O)c1cccc(Nc2ncc(F)c(Nc3ccc(Oc4cccnc4)cc3)n2)c1 [II-11, N2-(3-Aminosulfonylphenyl)-5-fluoro-N4-[4-(3-pyridyloxy)phenyl]-2,4-pyrimidinediamine] | 912 |
| Cc1cnc(Nc2cccc(S(N)(=O)=O)c2)nc1Nc1ccc(OCC(=O)N(C)C)c(Cl)c1 [Compound I-135, N2-(3-Aminosulfonylphenyl)-N4-(3-chloro-4-dimethylaminocarbonylmethoxyphenyl)-5-methyl-2,4-pyrimidinediamine] | 1830 |
| Cc1cc(COc2ccc(Nc3nc(Nc4cccc(S(N)(=O)=O)c4)ncc3F)cc2)no1 [Compound I-230, N2-(3-Aminosulfonylphenyl)-5-fluoro-N4-[4-(5-methylisoxazol-3-yl)methyleneoxyphenyl]-2,4-pyrimidinediamine] | 465 |
| C=CCNC(=O)COc1ccc(Nc2nc(Nc3cccc(S(N)(=O)=O)c3)ncc2F)cc1 [Compound I-158, N4-(4-Allylaminocarbonylmethoxyphenyl)-N2-(3-aminosulfonylphenyl)-5-fluoro-2,4-pyrimidinediamine] | 1380 |
| CN(C)C(=O)COc1ccc(Nc2nc(Nc3cccc(S(N)(=O)=O)c3)ncc2F)cc1Cl [Compound I-132, N2-(3-Aminosulfonylphenyl)-N4-(3-chloro-4-dimethylaminocarbonylmethoxyphenyl)-5-fluoro-2,4-pyrimidinediamine] | 2720 |
| CNC(=O)COc1ccc(Nc2nc(Nc3cccc(S(N)(=O)=O)c3)ncc2C)cc1F [Compound I-155, N2-(3-Aminosulfonylphenyl)-N4-(3-fluoro-4-methylaminocarbonylmethoxyphenyl)-5-methyl-2,4-pyrimidinediamine] | 65100 |
| NC(=O)COc1ccc(Nc2nc(Nc3cccc(S(N)(=O)=O)c3)ncc2F)cc1F [Compound I-101, N4-(4-Aminocarbonylmethoxy-3-fluorophenyl)-N2-(3-aminosulfonylphenyl)-5-fluoro-2,4-pyrimidinediamine] | 36600 |
| Cc1cnc(Nc2ccc(S(N)(=O)=O)cc2)nc1Nc1ccc(OCC(N)=O)cc1 [Compound I-108, N4-(4-Aminocarbonylmethoxyphenyl)-N2-(4-aminosulfonylphenyl)-5-methyl-2,4-pyrimidinediamine] | 3970 |
| Cc1cc(COc2ccc(Nc3nc(Nc4cccc(S(=O)(=O)NCc5oc(=O)oc5C)c4)ncc3F)cc2)no1 [Compound I-247, N2-{3-[(N-5-Methyl-1,3-dioxolene-2-one-4-yl)methylene]aminosulfonylphenyl}-5-fluoro-N4-[4-(5-methylisoxazol-3-yl)methyleneoxyphenyl]-2,4-pyrimidinediamine] | 1080 |

More lines, now with the values ahead:

| IC50 [nM] | SMILES |
| --- | --- |
| 321 | Cc1cnc(Nc2ccc(Cl)c(S(N)(=O)=O)c2)nc1Nc1ccc(CCC#N)cc1 [III-12, N2-(3-Aminosulfonyl-4-chlorophenyl)-N4-[4-(2-cyanoethyl)phenyl]-5-methyl-2,4-pyrimidinediamine] |
| 967 | COc1ccc(Nc2ncc(F)c(Nc3ccc(Cc4ccncc4)cc3)n2)cc1S(N)(=O)=O [III-66, N2-(3-Aminosulfonyl-4-methoxyphenyl)-5-fluoro-N4-[4-(4-pyridinylmethyl)phenyl]-2,4-pyrimidinediamine] |
| 782 | Cc1ccc(Nc2ncc(F)c(Nc3ccc(CCC#N)c(F)c3)n2)cc1S(N)(=O)=O [III-17, N2-(3-Aminosulfonyl-4-methylphenyl)-5-fluoro-N4-[4-(2-cyanoethyl)-3-fluorophenyl]-2,4-pyrimidinediamine] |
| 339 | Cc1ccc(Nc2ncc(F)c(Nc3ccc(CCC#N)c(Cl)c3)n2)cc1S(N)(=O)=O [III-21, N2-(3-Aminosulfonyl-4-methylphenyl)-N4-[3-chloro-4-(2-cyanoethyl)phenyl]-5-fluoro-2,4-pyrimidinediamine] |
| 2040 | Cc1ccc(Nc2ncc(F)c(NCCc3ccc(-n4ccnc4)cc3)n2)cc1S(N)(=O)=O [III-88, N2-(3-Aminosulfonyl-4-methylphenyl)-5-fluoro-N4-[4-(1-imidazolyl)phenethyl]-2,4-pyrimidinediamine] |
| 935 | Cc1ccc(Nc2ncc(F)c(Nc3ccc(Cc4ccncc4)cc3)n2)cc1S(N)(=O)=O [III-74, N2-(3-Aminosulfonyl-4-methylphenyl)-5-fluoro-N4-[4-(4-pyridinylmethyl)phenyl]-2,4-pyrimidinediamine] |

Same assay, conditions: U937 cells stimulated with IFNγ; ICAM-1 expression by FACS; read-out: IC50, Example 44

| SMILES | IC50 [nM] |
| --- | --- |
| Cc1ccc(Nc2ncc(F)c(Nc3ccc(CN4CCS(=O)(=O)CC4)cc3)n2)cc1S(N)(=O)=O [III-111, N2-(3-Aminosulfonyl-4-methylphenyl)-5-fluoro-N4-{4-[(1,1-dioxothiomorpholin-4-yl-)methyl]phenyl}-2,4-pyrimidinediamine] | 5340 |
| Cc1ccc(Nc2ncc(F)c(Nc3cnc4c(c3)OC(C)(C)C(=O)N4CC#N)n2)cc1S(N)(=O)=O [Compound V-14, N2-(3-Aminosulfonyl-4-methylphenyl)-N4-[2,2-dimethyl-3-oxo-4-cyanomethyl-5-pyrid[1,4]oxazin-7-yl]-5-fluoro-2,4-pyrimidinediamine] | 6850 |
| NS(=O)(=O)c1cccc(Nc2ncc(F)c(Nc3ccc(Cn4cncn4)cc3)n2)c1 [III-100, N2-(3-Aminosulfonylphenyl)-5-fluoro-N4-{4-[1-(1,2,4-thazolyl)methyl]phenyl}-2,4-pyrimidinediamine] | 1910 |
| NS(=O)(=O)c1cccc(Nc2ncc(F)c(Nc3ccc(Cc4ccncc4)cc3)n2)c1 [III-129, N2-(3-Aminosulfonylphenyl)-5-fluoro-N4-[4-(4-pyridylmethyl)phenyl]-2,4-pyrimidinediamine Methanesulfonic Acid Salt] | 1190 |
| NS(=O)(=O)c1cccc(Nc2ncc(F)c(Nc3ccc(CN4CCOCC4)cc3)n2)c1 [III-103, N2-(3-Aminosulfonylphenyl)-5-fluoro-N4-(4-N-morpholinomethylenephenyl)-2,4-pyrimidinediamine] | 2430 |
